{"source": "patent US9404916B2", "about": "“Use of a protein kinase inhibitor to detect immune cells, such as T cells” (University College Cardiff Consultants Limited, priority 2008, dated 2016)", "key": {"ILA1 CTL [1]": {"system": "ILA1 CTL", "assay": "pMHCI tetramer staining of ILA1 CTL clone after PKI pre-treatment (flow cytometry)", "assay_type": "cell-based, human", "conditions": "for enhancement of tetramer staining after PKI pre-incubation: ILA1 CTL, data not shown"}, "[2]": {"system": "HLA DR*0101-restricted CD4+ T-cell clone C6", "conditions": "50 nM dasatinib 30 minutes"}, "[3]": {"system": "antigen-specific CD8+ T-cells in PBMC", "assay": "pMHCI tetramer staining of PBMC directly ex vivo", "assay_type": "cell-based, human"}, "T-cell clones": {"system": "T-cell clones", "assay": "Recovery of responsiveness to antigen after drug removal", "assay_type": "cell-based", "conditions": "T-cell clones incubated in 50 nM dasatinib for 24 hours; data not shown"}, "Mel13 CTL": {"system": "Mel13 CTL", "assay": "Antigen-induced TCR downregulation", "conditions": "50 nM dasatinib; peptide-pulsed C1R-A2 B cells, 4 hours"}, "naïve murine F5 TCR CTL": {"system": "naïve murine F5 TCR CTL", "assay": "H2-Db/[…] tetramer staining of F5 TCR transgenic splenocytes", "assay_type": "cell-based, mouse", "conditions": "50 nM dasatinib 30 minutes", "text": "C. […] Samples were washed with PBS before flow cytometric analysis."}, "ILA1 CTL [4]": {"system": "ILA1 CTL", "assay": "TCR and CD8 expression levels at the CTL cell surface", "assay_type": "cell-based, human", "conditions": "50 nM dasatinib 37° C."}, "[5]": {"assay": "Shelf-life of working solution", "assay_type": "physicochemical", "conditions": "100 nM in PBS", "protocol": "Biological activity was tested in a cell death titration assay on BA/F3 bcr-abl cells as described previously (Magnusson et al., 2002). […] The 1 mM DMSO stock was diluted 1/10,000 in PBS on the day of experimentation to achieve a working solution of 100 nM; subsequent ½ dilution yielded a final concentration of 50 nM in cellular assays unless stated otherwise. The 100 nM working solution was always made up on the day of experimentation as the shelf-life of this solution is short (˜days). Staurosporine (Biomol), Lck inhibitor II (Calbiochem), genestein (calbiochem), herbimycin A (Calbiochem), PP2 (Calbiochem) and PP3 (Calbiochem) were dissolved and stored at −20° C. in DMSO. PKIs were dissolved in PBS prior to use and tested at concentrations of 1 nM, 3 nM, 5 nM, 10 nM, 20 nM, 50 nM, 100 nM, 250 nM, 500 nM and 1 μM."}, "ILA1 CTL [6]": {"system": "ILA1 CTL", "assay": "pMHCI tetramer on-rate experiment", "conditions": "dasatinib+tetramer; 50 nM 30 minutes 37° C.; HLA A2/hTERT540-548 tetramer"}, "T-cells": {"system": "T-cells", "conditions": "cited from earlier work"}, "[7]": {"system": "CTL lines (Melan-A/Mart-1 26-35 and influenza matrix M1 58-66)", "assay": "Cognate tetramer staining of HLA A2-restricted CTL lines expanded from PBMC", "assay_type": "cell-based, human", "conditions": "50 nM dasatinib"}, "[8]": {"system": "tetramer-positive CD3+CD8+ T-cells", "assay_type": "cell-based, human", "protocol": ". It is known that pMHCI tetramer-induced signaling can trigger cell death (Purbhoo et al., 2001; Xu et al., 2001; Guillaume et al., 2003; Cebecauer et al., 2005). Cell death induced by tetramer staining was assessed using the amine-reactive viability dye GrViD at the end of the staining procedure, which is spectrally distinct from ViViD. PBMC were stained with ViViD to identify and allow exclusion of dead and dying cells prior to the addition of pMHCI tetramer; GrVID staining was performed after pMHCI tetramer and surface antibody staining. Data were acquired on a BD LSR II flow cytometer and analyzed using FlowJo software. ViViD^±, CD14^+ and CD19^+ cells were excluded from the analysis and the frequency of GrViD-positive cells was assessed in the tetramer-positive CD3+CD8^+ T-cell populations. Representative flow profiles are shown here for CD^+T-cells specific for the HLA A2-restricted epitopes CMV pp65495-503 ([…](SEQ ID NO:3)) and EBV BMLFI259-267 ([…] SEQ ID NO:4)). […]. […] Stained PBMC were acquired on a BD LSR II (Becton Dickinson Immunocytometry Systems, San Jose, Calif., USA) and analyzed using FlowJo software (Tree Star, Inc., Ashland, Oreg., USA)."}, "[9]": {"target": "IE6 TCR (on CTL clone IE6)"}}, "note": "Several values for one entry are separate records, joined by “and”; a condition that tells them apart may be missing. Equal entries are not always repeated. Entries after “also recorded” stand apart in the source; their conditions may differ."}
{"molecule": "CN[C@@H]1C[C@H]2O[C@@](C)([C@@H]1OC)n1c3ccccc3c3c4c(c5c6ccccc6n2c5c31)C(=O)NC4", "note": "[staurosporine]", "values": [{"measurement": "enhancement of tetramer staining after PKI pre-incubation", "setting": "ILA1 CTL [1]", "value": "no significant enhancement"}]}
{"molecule": "Nc1ncnc2c1cnn2-c1ccccc1", "note": "[PP3]", "values": [{"measurement": "enhancement of tetramer staining after PKI pre-incubation", "setting": "ILA1 CTL [1]", "value": "no significant enhancement"}]}
{"molecule": "Cc1nc(Nc2ncc(C(=O)Nc3c(C)cccc3Cl)s2)cc(N2CCN(CCO)CC2)n1", "note": "[dasatinib, N-(2-chloro-6-methyl-phenyl)-2-(6-(4-(2-hydroxyethyl)-piperazin-1-yl)-2-methylpyrimidin-4-ylamino)thiazole-5-carboxamide]", "values": [{"measurement": "pMHCII tetramer staining of CD4+ T-cell clone", "setting": "[2]", "value": "enhanced"}, {"measurement": "pMHCI staining intensity and percentage of antigen-specific CD8+ T-cells", "setting": "[3]", "value": "substantial increase"}, {"measurement": "time to regain responsiveness to antigen after drug removal", "setting": "T-cell clones", "value": "≤ 1", "unit": "h"}, {"measurement": "antigen-induced TCR downregulation from the CTL surface", "setting": "Mel13 CTL", "value": "block antigen-induced TCR downregulation"}, {"measurement": "pMHCI tetramer staining of naïve murine F5 TCR CTL directly ex vivo", "setting": "naïve murine F5 TCR CTL", "value": "enhanced"}, {"measurement": "time until significant increases in TCR and CD8 levels", "setting": "ILA1 CTL [4]", "value": "> 30", "unit": "min"}, {"measurement": "shelf-life of 100 nM working solution", "setting": "[5]", "value": "short"}, {"measurement": "tetramer on-rate, fast rate", "setting": "ILA1 CTL [6]", "value": 0.42, "unit": "min⁻¹"}, {"measurement": "tetramer on-rate, slow rate", "setting": "ILA1 CTL [6]", "value": 0.06, "unit": "min⁻¹"}, {"measurement": "concentrations not toxic to T-cells in the short term", "setting": "T-cells", "value": "< 100", "unit": "nM"}, {"measurement": "increase in fluorescence intensity of T-cells that bound tetramer weakly", "setting": "[7]", "value": "> 20", "unit": "fold"}, {"measurement": "increase in staining intensity of all cognate CD8+ T-cells", "setting": "[7]", "value": "at least 2 fold"}, {"measurement": "frequency of GrViD-positive dead cells within the tetramer-positive population", "setting": "[8]", "value": "always lower; also recorded: reduced"}, {"measurement": "increase in pMHCI tetramer staining", "setting": "ILA1 CTL [1]", "value": 60, "unit": "%"}, {"measurement": "increase in pMHCI tetramer staining intensity", "setting": "ILA1 CTL [1]", "value": 89, "unit": "%"}]}
{"molecule": "O=c1c(-c2ccc(O)cc2)coc2cc(O)cc(O)c12", "note": "[genestein]", "values": [{"measurement": "enhancement of tetramer staining after PKI pre-incubation", "setting": "ILA1 CTL [1]", "value": "no significant enhancement"}]}
{"molecule": "HLA A2/PPI15-24 tetramer (from UniProt P61769 21-119) (peptide-MHC)", "values": [{"measurement": "MFI", "setting": "Short term line", "value": "217 and 347"}]}
{"molecule": "CO[C@H]1[C@@H](OC)C[C@H](C)[C@@H](OC)C2=CC(=O)C=C(NC(=O)/C(C)=C/C=C\\[C@H](OC)[C@@H](OC(N)=O)/C(C)=C/[C@@H]1C)C2=O", "note": "[herbimycin, herbimycin A]", "values": [{"measurement": "enhancement of tetramer staining after PKI pre-incubation", "setting": "ILA1 CTL [1]", "value": "no significant enhancement"}]}
{"molecule": "CC(C)(C)n1nc(-c2ccc(Cl)cc2)c2c(N)ncnc21", "note": "[PP2]", "values": [{"measurement": "enhancement of tetramer staining after PKI pre-incubation", "setting": "ILA1 CTL [1]", "value": "moderate increase"}]}
{"molecule": "HLA A2 presenting PPI15-24 peptide on pulsed target cells (from UniProt P61769 21-119) (peptide-MHC)", "values": [{"measurement": "% TNFα-positive cells (intracellular cytokine staining, TNF-APC against SSC-Height, 6 h with PPI peptide)", "setting": "[9]", "value": 30.9, "unit": "%"}]}
